Source: patent EP1931657B1, “NOVEL HIGH AFFINITY QUINOLINE-BASED KINASE LIGANDS” (Merck Sharp & Dohme Corp., priority 2005, dated 2007)

Target: CDK-2 (Homo sapiens, UniProt P24941)
Experiment: CDK-2 inhibition, fluorescence polarization displacement assay
Description: Binding assays were performed in a 384 well Costar NBS coated plate. […] The concentration of BMS-Alexa Fluor647 was 50 nM. Serial dilutions of compounds were added to 12 wells. The final buffer concentration was 10 mM Hepes, pH 7.5, 150 mM NaCl, and 1 mM DTT. Samples were incubated at room temperature for 15 minutes and then read in an Analyst HT instrument using an excitation and emission wavelength of 580 and 680 nm, respectively.

Row | IC50 [µM] | SMILES
1 | 1 to 40 | COC[C@H](Cc1ccc(O)cc1)NC(=O)c1cc(C(=O)NS(C)(=O)=O)c2cc(-c3cccc(C(F)(F)F)c3)ccc2n1 [Compound 95]
2 | < 1 | COC(=O)[C@H](Cc1ccc(O)cc1)NC(=O)c1cc(C(=O)O)c2cc(CCc3ccc(C(F)(F)F)cc3)ccc2n1 [Compound 8]
3 | < 1 | COC(=O)[C@H](Cc1ccc(O)cc1)NC(=O)c1cc(C(=O)O)c2cc(CCC(C)(C)C)ccc2n1 [Compound 52]
4 | > 40 | COC(=O)[C@H](Cc1ccc(O)cc1)NC(=O)c1cc(C(=O)O)c2cc(-c3cccc(NC(C)=O)c3)ccc2n1 [Compound 158]
5 | 1 to 40 | COC[C@H](Cc1ccc(O)cc1)NC(=O)c1cc(C(=O)O)c2cc(C#Cc3cccnc3)ccc2n1 [Compound 137]
6 | < 1 | COC[C@H](Cc1ccc(O)cc1)NC(=O)c1cc(C(=O)O)c2cc(-c3cccc(Cn4ccccc4=O)c3)ccc2n1 [Compound 26]
7 | > 40 | COC[C@H](Cc1ccc(O)cc1)NC(=O)c1cc(C(=O)O)c2cc(CSc3ccncc3)ccc2n1 [Compound 208]
8 | 1 to 40 | COC(=O)[C@H](Cc1ccc(O)cc1)NC(=O)c1cc(C(=O)O)c2cc(-c3ccc(N(C)C)cc3)ccc2n1 [Compound 107]
9 | < 1 | COC(=O)[C@H](Cc1ccc(O)cc1)NC(=O)c1cc(C(=O)O)c2cc(-c3ccc(Cl)cc3)ccc2n1 [Compound 83]
10 | > 40 | COC[C@H](Cc1ccc(O)cc1)NC(=O)c1cc(C(=O)O)c2cc(C#CCN(C)C)ccc2n1 [Compound 185]
11 | < 1 | COC(=O)[C@H](Cc1ccc(O)cc1)NC(=O)c1cc(C(=O)O)c2cc(-c3cccc(C(C)C)c3)ccc2n1 [Compound 30]
12 | > 40 | COC(=O)[C@H](Cc1ccc(OC(C)(C)C)cc1)NC(=O)c1cc(C(=O)O)c2cc(-c3cccc(C(F)(F)F)c3)ccc2n1 [Compound 166]
13 | < 1 | COC[C@H](Cc1ccc(O)cc1)NC(=O)c1cc(S(=O)(=O)O)c2cc(-c3cccc(C(F)(F)F)c3)ccc2n1 [Compound 71]
14 | > 40 | COC[C@H](Cc1ccc(O)cc1)NC(=O)c1cc(C(=O)O)c2cc(-c3cccc(CN(C)CCO)c3)ccc2n1 [Compound 191]
15 | 1 to 40 | N#CC[C@H](Cc1ccc(O)cc1)NC(=O)c1cc(C(=O)O)c2cc(CCc3ccccc3)ccc2n1 [Compound 116]
16 | 1 to 40 | COC[C@H](Cc1ccc(O)cc1)NC(=O)c1cc(C(=O)O)c2cc(C#Cc3ccccn3)ccc2n1 [Compound 125]
17 | > 40 | COC[C@H](Cc1ccc(O)cc1)NC(=O)c1cc(C(=O)O)c2cc(-c3cccc(CN(C)C)c3)ccc2n1 [Compound 190]
18 | 1 to 40 | COC[C@H](Cc1ccc(O)cc1)NC(=O)c1cc(C(=O)O)c2cc(C#Cc3ccccc3C(F)(F)F)ccc2n1 [Compound 148]
19 | < 1 | COC(=O)[C@H](Cc1ccc(O)cc1)NC(=O)c1cc(C(=O)O)c2cc(-c3cccc(-c4ccccc4)c3)ccc2n1 [Compound 42]
20 | < 1 | COC(=O)[C@H](Cc1ccc(O)cc1)NC(=O)c1cc(C(=O)O)c2cc(-c3ccc(C)s3)ccc2n1 [Compound 82]
21 | > 40 | COC[C@H](Cc1ccc(O)cc1)NC(=O)c1cc(C(=O)O)c2cc(COc3ccccc3OC)ccc2n1 [Compound 201]
22 | > 40 | CCOC(=O)C#Cc1ccc2nc(C(=O)N[C@H](COC)Cc3ccc(O)cc3)cc(C(=O)O)c2c1 [Compound 206]
23 | > 40 | COC[C@H](Cc1ccc(O)cc1)NC(=O)c1cc(S(C)(=O)=O)c2cc(-c3cccc(C(F)(F)F)c3)ccc2n1 [Compound 172]

Row | IC50 [µM] | SMILES
24 | > 40 | COC[C@H](Cc1ccc(O)cc1)NC(=O)c1cc(C(=O)O)c2cc(COc3ccc(O)cc3)ccc2n1 [Compound 202]
25 | > 40 | NC[C@H](Cc1ccc(O)cc1)NC(=O)c1cc(C(=O)O)c2cc(CCc3ccccc3)ccc2n1 [Compound 181]
26 | < 1 | COC(=O)[C@H](Cc1ccc(O)cc1)NC(=O)c1cc(C(=O)O)c2cc(CCc3ccc(F)cc3)ccc2n1 [Compound 31]
27 | > 40 | COC[C@H](Cc1ccc(O)cc1)NC(=O)c1cc(C(=O)O)c2cc(CCc3cccnc3)ccc2n1 [Compound 187]
28 | < 1 | COC(=O)[C@H](Cc1ccc(O)cc1)NC(=O)c1cc(C(=O)O)c2cc(-c3ccc(C)c([N+](=O)[O-])c3)ccc2n1 [Compound 49]
29 | 1 to 40 | COC[C@H](Cc1ccc(O)cc1)NC(=O)c1cc(NS(=O)(=O)C(C)(C)C)c2cc(-c3cccc(COc4cccc[n+]4[O-])c3)ccc2n1 [Compound 98]
30 | 1 to 40 | COC[C@H](Cc1ccc(O)cc1)NC(=O)c1cc(C(=O)O)c2cc(COc3ccc(Cl)c(F)c3)ccc2n1 [Compound 146]
31 | < 1 | COC(=O)[C@H](Cc1ccc(O)cc1)NC(=O)c1cc(C(=O)O)c2cc(-c3cc4ccccc4s3)ccc2n1 [Compound 58]
32 | < 1 | COC(=O)[C@H](Cc1ccc(O)cc1)NC(=O)c1cc(C(=O)O)c2cc(-c3ccc(F)c(Cl)c3)ccc2n1 [Compound 50]
33 | < 1 | COC(=O)[C@H](Cc1ccc(O)cc1)NC(=O)c1cc(C(=O)O)c2cc(/C=C/C(C)(C)C)ccc2n1 [Compound 11]
34 | > 40 | COC[C@H](Cc1ccc(O)cc1)NC(=O)c1cc(C(=O)OCC(O)CO)c2cc(/C=C/c3ccc(Cl)cc3)ccc2n1 (stereo partly shown) [Compound 215]
35 | > 40 | COC[C@H](Cc1ccc(O)cc1)NC(=O)c1cc(C(=O)O)c2cc(C#CCCCN3CCN(C)CC3)ccc2n1 [Compound 220]
36 | > 40 | CCCCOC(=O)c1cc(C(=O)N[C@H](COC)Cc2ccc(O)cc2)nc2ccc(-c3cccc(C(F)(F)F)c3)cc12 [Compound 177]
37 | > 40 | COC[C@H](Cc1ccc(O)cc1)NC(=O)c1cc(C(=O)OCCO)c2cc(-c3cccc(C(F)(F)F)c3)ccc2n1 [Compound 173]
38 | > 40 | COC[C@H](Cc1ccc(O)cc1)NC(=O)c1cc(C(=O)O)c2cc(CN(C)C)ccc2n1 [Compound 211]
39 | > 40 | NCC[C@H](Cc1ccc(O)cc1)NC(=O)c1cc(C(=O)O)c2cc(CCc3ccccc3)ccc2n1 [Compound 182]
40 | > 40 | COC(=O)[C@H](Cc1c[nH]cn1)NC(=O)c1cc(C(=O)O)c2cc(-c3cccs3)ccc2n1 [Compound 156]
41 | > 40 | COC[C@H](Cc1ccc(O)cc1)NC(=O)c1cc(C(=O)O)c2cc(C#CCN3CCS(=O)(=O)CC3)ccc2n1 [Compound 205]
42 | > 40 | CCCCOC(=O)c1cc(C(=O)N[C@@H](Cc2ccc(O)cc2)C(=O)OC)nc2ccc(-c3cccs3)cc12 [Compound 231]
43 | 1 to 40 | COC(=O)[C@H](Cc1ccc(O)cc1)NC(=O)c1cc(C(=O)O)c2cc(-c3ccc(N)cc3)ccc2n1 [Compound 145]
44 | > 40 | COC(=O)[C@H](Cc1ccc(OC)cc1)NC(=O)c1cc(S(C)(=O)=O)c2cc(-c3cccc(C(F)(F)F)c3)ccc2n1 [Compound 171]
45 | 1 to 40 | COC(=O)[C@H](Cc1ccc(O)cc1)NC(=O)c1cc(C(=O)O)c2cc(-c3ccccc3OC)ccc2n1 [Compound 151]
46 | 1 to 40 | COC(=O)[C@H](Cc1ccc(O)cc1)NC(=O)c1cc(C(=O)O)c2cc(-c3cccc(C(C)=O)c3)ccc2n1 [Compound 104]

Row | IC50 [µM] | SMILES
47 | < 1 | O=C(N[C@@H](Cc1ccc(O)cc1)c1ncc[nH]1)c1cc(C(=O)O)c2cc(-c3cccc(C(F)(F)F)c3)ccc2n1 [Compound 86]
48 | > 40 | COC[C@H](Cc1ccc(O)cc1)NC(=O)c1cc(C(=O)O)c2cc(COc3ccc(OC)cc3)ccc2n1 [Compound 200]
49 | > 40 | COC[C@H](Cc1ccc(O)cc1)NC(=O)c1cc(C(=O)O)c2cc(C#CCCCCN3CCN(C)CC3)ccc2n1 [Compound 219]
50 | < 1 | COC(=O)[C@H](Cc1ccc(O)cc1)NC(=O)c1cc(NS(C)(=O)=O)c2cc(-c3cccc(C(F)(F)F)c3)ccc2n1 [Compound 64]
51 | > 40 | COC(=O)C(Cc1ccc(O)cc1)NC(=O)c1cc(C(=O)NC(C)C)c2cc(-c3cccs3)ccc2n1 (stereo not shown) [Compound 235]
52 | > 40 | CCN(CC)Cc1cccc(-c2ccc3nc(C(=O)N[C@H](COC)Cc4ccc(O)cc4)cc(C(=O)O)c3c2)c1 [Compound 183]
53 | 1 to 40 | COC(=O)[C@H](Cc1ccc(O)cc1)NC(=O)c1cc(C(=O)O)c2cc(-c3cccc(OC)c3)ccc2n1 [Compound 91]
54 | 1 to 40 | COC(=O)[C@H](Cc1ccc(O)cc1)NC(=O)c1cc(C(=O)O)c2cc(-c3cc(C(F)(F)F)cc(C(F)(F)F)c3)ccc2n1 [Compound 112]
55 | 1 to 40 | CC(Cc1ccc(O)cc1)NC(=O)c1cc(C(=O)O)c2cc(-c3cccc(C(F)(F)F)c3)ccc2n1 (stereo not shown) [Compound 110]
56 | > 40 | CCOC(=O)c1cc(C(=O)N[C@H](COC)Cc2ccc(O)cc2)nc2ccc(/C=C/c3ccc(Cl)cc3)cc12 [Compound 217]
57 | > 40 | COC[C@H](Cc1ccc(O)cc1)NC(=O)c1cc(C(=O)O)c2cc(-c3cccc(CNC(CO)CO)c3)ccc2n1 [Compound 197]
58 | > 40 | COC(=O)[C@H](Cc1ccc(O)cc1)NC(=O)c1cc(C(=O)Nc2nnn[nH]2)c2cc(-c3cccs3)ccc2n1 [Compound 234]
59 | < 1 | COC(=O)[C@H](Cc1ccc(O)cc1)NC(=O)c1cc(C(=O)O)c2cc(-c3cccs3)ccc2n1 [Compound 81]
60 | 1 to 40 | COC(=O)[C@H](Cc1ccc(O)cc1)NC(=O)c1cc(C(=O)O)c2cc(-c3ccc(C)cc3)ccc2n1 [Compound 103]
61 | 1 to 40 | O=C(N[C@@H](Cc1ccc(O)cc1)c1cnco1)c1cc(C(=O)O)c2cc(-c3cccc(C(F)(F)F)c3)ccc2n1 [Compound 99]
62 | 1 to 40 | COC[C@H](Cc1ccc(O)cc1)NC(=O)c1cc(NS(=O)(=O)C(C)(C)C)c2cc(-c3cccc(COc4cccnc4)c3)ccc2n1 [Compound 139]
63 | 1 to 40 | COC(=O)[C@H](Cc1ccc(O)cc1)NC(=O)c1cc(C(=O)O)c2cc(-c3cccnc3)ccc2n1 [Compound 130]
64 | > 40 | COC[C@H](Cc1ccc(O)cc1)NC(=O)c1cc(C(=O)O)c2cc(COc3ccccc3)ccc2n1 [Compound 180]
65 | > 40 | COC[C@H](Cc1ccc(O)cc1)NC(=O)c1cc(C(=O)OCCN(C)C)c2cc(/C=C/c3ccc(Cl)cc3)ccc2n1 [Compound 218]
66 | 1 to 40 | COC[C@H](Cc1ccc(O)cc1)NC(=O)c1cc(C(=O)O)c2cc(COc3ccc(C(F)(F)F)cc3)ccc2n1 [Compound 129]
67 | < 1 | COC(=O)[C@H](Cc1ccc(O)cc1)NC(=O)c1cc(C(=O)O)c2cc(-c3ccc(Oc4ccccc4)cc3)ccc2n1 [Compound 51]
